Test results as given in ChEMBL document CHEMBL1201862, “PubChem BioAssay data set” (2004).
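96-well plates; 48 h exposure; 5 concentrations. Endpoints by linear interpolation between flanking doses. Not reached: highest tested concentration assigned. At the GI50, growth is halved.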 Active and inactive are the calls of the source. No stated cut-off is given here; in the data, active = GI50 up to about 1.1 µM and inactive = higher.

Legend:
Experiment in all cases: DTP human tumour cell line panel, 48 h
SK-MEL-5 = system: SK-MEL-5
HCT-15 = system: HCT-15
HT-29 = system: HT-29
COLO 205 = system: COLO 205
U-251 = system: U-251
PC-3 = system: PC-3
SF-295 = system: SF-295
NCI-H522 = system: NCI-H522
SN12C = system: SN12C
ACHN = system: ACHN
UACC-62 = system: UACC-62
KM12 = system: KM12
CAKI-1 = system: CAKI-1
SW-620 = system: SW-620
BT-549 = system: BT-549
OVCAR-8 = system: OVCAR-8
NCI-H226 = system: NCI-H226
M14 = system: M14
A549 = system: A549
SNB-75 = system: SNB-75

COc1cc(CCC(=O)O)c2cc3ccccc3cc2c1O
GI50 (SK-MEL-5): 15.1 µM (inactive) | GI50 (HCT-15): 18.2 µM | GI50 (HT-29): 21.1 µM (inactive) | GI50 (COLO 205): 18 µM (inactive) | GI50 (U-251): 16.4 µM (inactive) | GI50 (PC-3): 18.5 µM (inactive) | GI50 (SF-295): 20 µM (inactive) | GI50 (NCI-H522): 20.7 µM (inactive) | GI50 (SN12C): 17.8 µM (inactive) | GI50 (ACHN): 17.3 µM (inactive) | GI50 (UACC-62): 18.4 µM (inactive) | GI50 (KM12): 20.5 µM (inactive) | GI50 (CAKI-1): 19.6 µM (inactive) | GI50 (SW-620): 21.4 µM (inactive) | GI50 (BT-549): 17.1 µM (inactive) | GI50 (OVCAR-8): 16.3 µM (inactive) | GI50 (NCI-H226): 32.6 µM (inactive) | GI50 (M14): 21.7 µM (inactive) | GI50 (A549): 22.1 µM (inactive)

O=[N+]([O-])/C(C(Cl)=C(Cl)Cl)=C(/Nc1cccc2cccnc12)n1nnc2ccccc21
GI50 (HCT-15): 10.8 µM | GI50 (HT-29): 17.7 µM (inactive) | GI50 (COLO 205): 17.3 µM (inactive) | GI50 (PC-3): 19.2 µM (inactive) | GI50 (SF-295): 17.9 µM (inactive) | GI50 (SN12C): 16.3 µM (inactive) | GI50 (ACHN): 19.7 µM (inactive) | GI50 (KM12): 16 µM (inactive) | GI50 (CAKI-1): 13.5 µM (inactive) | GI50 (SW-620): 15.8 µM (inactive) | GI50 (BT-549): 14.2 µM (inactive) | GI50 (OVCAR-8): 13.8 µM (inactive) | GI50 (NCI-H226): 23.2 µM (inactive) | GI50 (M14): 12.2 µM (inactive) | GI50 (A549): 27.3 µM (inactive) | GI50 (SNB-75): 19.4 µM (inactive)

O=C(NCCN1CCCCC1)c1ccc(Br)cc1
GI50 (SK-MEL-5): > 100 µM (inactive) | GI50 (HCT-15): > 100 µM | GI50 (HT-29): > 100 µM (inactive) | GI50 (COLO 205): > 100 µM (inactive) | GI50 (U-251): > 100 µM (inactive) | GI50 (PC-3): > 100 µM (inactive) | GI50 (SF-295): > 100 µM (inactive) | GI50 (NCI-H522): > 100 µM (inactive) | GI50 (SN12C): > 100 µM (inactive) | GI50 (ACHN): > 100 µM (inactive) | GI50 (KM12): > 100 µM (inactive) | GI50 (CAKI-1): > 100 µM (inactive) | GI50 (SW-620): > 100 µM (inactive) | GI50 (BT-549): > 100 µM (inactive) | GI50 (OVCAR-8): > 100 µM (inactive) | GI50 (M14): > 100 µM (inactive) | GI50 (A549): > 100 µM (inactive) | GI50 (SNB-75): 54.3 µM (inactive)

O=C(CSc1nccc(=O)[nH]1)c1ccccc1
GI50 (SK-MEL-5): > 100 µM (inactive) | GI50 (HCT-15): > 100 µM | GI50 (HT-29): > 100 µM (inactive) | GI50 (COLO 205): > 100 µM (inactive) | GI50 (U-251): > 100 µM (inactive) | GI50 (PC-3): > 100 µM (inactive) | GI50 (SF-295): 60.4 µM (inactive) | GI50 (NCI-H522): > 100 µM (inactive) | GI50 (SN12C): 49.9 µM (inactive) | GI50 (ACHN): > 100 µM (inactive) | GI50 (UACC-62): 46.2 µM (inactive) | GI50 (KM12): > 100 µM (inactive) | GI50 (CAKI-1): > 100 µM (inactive) | GI50 (SW-620): > 100 µM (inactive) | GI50 (BT-549): > 100 µM (inactive) | GI50 (OVCAR-8): > 100 µM (inactive) | GI50 (M14): > 100 µM (inactive) | GI50 (A549): > 100 µM (inactive) | GI50 (SNB-75): > 100 µM (inactive)

CCCCCCCCCCCCCCCCCCNc1ccn(C2OC(COP(=O)(O)OCC3OC(n4cc(F)c(=O)[nH]c4=O)CC3O)C(O)C2O)c(=O)n1 (stereo not drawn)
GI50 (SK-MEL-5): 23.1 µM (inactive) | GI50 (HCT-15): 16.3 µM | GI50 (HT-29): 5.38 µM (inactive) | GI50 (COLO 205): 16.1 µM (inactive) | GI50 (U-251): 6.28 µM (inactive) | GI50 (PC-3): 1.53 µM (inactive) | GI50 (SF-295): 0.47 µM (active) | GI50 (NCI-H522): 4.83 µM (inactive) | GI50 (SN12C): 3.29 µM (inactive) | GI50 (ACHN): 0.778 µM (active) | GI50 (UACC-62): 1.19 µM (inactive) | GI50 (KM12): 15.5 µM (inactive) | GI50 (CAKI-1): 1.16 µM (inactive) | GI50 (SW-620): 42.8 µM (inactive) | GI50 (BT-549): 11.7 µM (inactive) | GI50 (OVCAR-8): 1.36 µM (inactive) | GI50 (M14): 3.31 µM (inactive) | GI50 (A549): 0.251 µM (active) | GI50 (SNB-75): 1.18 µM (inactive)

NC1=Nc2ccccc2Sc2nc3ccccc3n21
GI50 (SK-MEL-5): 5.4 µM (inactive) | GI50 (HCT-15): 35.5 µM | GI50 (HT-29): 9.12 µM (inactive) | GI50 (COLO 205): 7.8 µM (inactive) | GI50 (U-251): 5.9 µM (inactive) | GI50 (PC-3): 9.62 µM (inactive) | GI50 (SF-295): 43.3 µM (inactive) | GI50 (NCI-H522): 13.9 µM (inactive) | GI50 (SN12C): 48.2 µM (inactive) | GI50 (ACHN): 29.7 µM (inactive) | GI50 (UACC-62): 23.9 µM (inactive) | GI50 (KM12): 27.2 µM (inactive) | GI50 (SW-620): 46.1 µM (inactive) | GI50 (BT-549): 34.3 µM (inactive) | GI50 (NCI-H226): 10.4 µM (inactive) | GI50 (M14): 5.46 µM (inactive) | GI50 (A549): 26.7 µM (inactive) | GI50 (SNB-75): 15.6 µM (inactive)

CCOC1CC(=O)c2c(Br)sc(Br)c21 (stereo not drawn)
GI50 (SK-MEL-5): 30.8 µM (inactive) | GI50 (HCT-15): 18 µM | GI50 (HT-29): 21.3 µM (inactive) | GI50 (COLO 205): 19.7 µM (inactive) | GI50 (U-251): 16.9 µM (inactive) | GI50 (PC-3): 20.8 µM (inactive) | GI50 (SF-295): 27.9 µM (inactive) | GI50 (NCI-H522): 28.5 µM (inactive) | GI50 (SN12C): 24.9 µM (inactive) | GI50 (ACHN): 19.7 µM (inactive) | GI50 (UACC-62): 18.7 µM (inactive) | GI50 (KM12): 19.3 µM (inactive) | GI50 (CAKI-1): 17.3 µM (inactive) | GI50 (SW-620): 20 µM (inactive) | GI50 (BT-549): 24.4 µM (inactive) | GI50 (OVCAR-8): 17.5 µM (inactive) | GI50 (M14): 17.1 µM (inactive) | GI50 (A549): 29.2 µM (inactive) | GI50 (SNB-75): 19.1 µM (inactive)
